Patent US9034897B2, “Indanyl-substituted 4,5,6,7-tetrahydro-1H-pyrazolo[4,3-C]pyridines, their use as medicament, and pharmaceutical preparations comprising them” (SANOFI, priority 2011, dated 2015)

What follows are molecules tested against Human TASK-1 channels (Homo sapiens (Human), UniProt O14649) (assay: Activity on the TASK-1 channel in Xenopus oocytes (two-microelectrode voltage clamp)). Details: 5 μM; percentage inhibition of TASK-1 control current, Xenopus oocytes.
Type: cell-based
Method: Determination of the activity on the TASK-1 channel in Xenopus oocytes:
Human TASK-1 channels were expressed in Xenopus oocytes. For this purpose, oocytes were isolated from Xenopus laevis and defolliculated. Subsequently, TASK-1-encoding RNA synthesized in vitro was injected into oocytes. After two days of TASK-1 protein expression, TASK-1 currents were measured by two-microelectrode voltage clamp. Data were acquired and analyzed using a TEC-10cx amplifier (NPI Electronic, Tamm, Germany) connected to an ITC-16 interface (Instrutech Corp., Long Island, USA) and Pulse software (HEKA Elektronik, Lambrecht, Germany). Oocytes were clamped to −90 mV and TASK-1 mediated currents were measured during 500 ms voltage pulses to 40 mV. Oocytes were continuously superfused with ND96 buffer containing: NaCl 96 mM, KCl2 mM, CaCl2 1.8 mM, MgCl2 1 mM, HEPES 5 mM (pH adjusted to 7.4 with NaOH). All experiments were performed at room temperature.
Test substances were consecutively added to the bath solution at rising concentrations. Compound effects were calculated as the percentage inhibition of
TASK-1 control current before compound application. IC50 values were obtained by fitting the data to the general dose-response equation.

Chain of Human TASK-1 channels (O14649 whole entry): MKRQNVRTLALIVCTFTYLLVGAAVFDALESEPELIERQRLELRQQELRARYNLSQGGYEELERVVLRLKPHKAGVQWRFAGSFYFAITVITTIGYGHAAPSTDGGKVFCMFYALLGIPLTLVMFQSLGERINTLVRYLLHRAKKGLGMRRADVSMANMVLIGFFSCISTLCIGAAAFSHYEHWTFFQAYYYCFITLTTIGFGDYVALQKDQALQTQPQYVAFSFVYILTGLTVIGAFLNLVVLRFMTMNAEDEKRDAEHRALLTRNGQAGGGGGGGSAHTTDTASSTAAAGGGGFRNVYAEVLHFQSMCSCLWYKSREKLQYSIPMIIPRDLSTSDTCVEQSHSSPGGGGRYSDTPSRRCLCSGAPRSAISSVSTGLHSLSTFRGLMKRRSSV

| inhibition at 5 µM [%] | SMILES |
| --- | --- |
| 72 | COCC(=O)N1CCc2c(c(-c3cccc(C#N)c3)nn2[C@@H]2c3cc(F)cc(F)c3C[C@H]2O)C1 [Example 14e, 3-[1-((1R,2R)-4,6-Difluoro-2-hydroxy-indan-1-yl)-5-(2-methoxy-acetyl)-4,5,6,7-tetrahydro-1H-pyrazolo[4,3-c]pyridin-3-yl]-benzonitrile] |
| 51 | CCC(=O)O[C@@H]1Cc2c(F)cc(F)cc2[C@H]1n1nc(-c2cccc(C#N)c2)c2c1CCN(C(=O)CC)C2 [Example 15a, Propionic acid (1R,2R)-1-[3-(3-cyano-phenyl)-5-propionyl-4,5,6,7-tetrahydro-pyrazolo[4,3-c]pyridin-1-yl]-4,6-difluoro-indan-2-yl ester] |
| 56 | COCCN1CCc2c(c(-c3ccc(F)cc3)nn2[C@@H]2c3cc(F)cc(F)c3C[C@H]2O)C1 [Example 18g] |
| 81 | N#Cc1cccc(-c2nn([C@@H]3c4cc(F)cc(F)c4C[C@H]3O)c3c2CN(CC2CC2)CC3)c1 [Example 18e, 3-[5-Cyclopropylmethyl-1-((1R,2R)-4,6-difluoro-2-hydroxy-indan-1-yl)-4,5,6,7-tetrahydro-1H-pyrazolo[4,3-c]pyridin-3-yl]-benzonitrile] |
| 80 | CS(=O)(=O)N1CCc2c(c(-c3cccc(C#N)c3)nn2[C@@H]2c3cc(Cl)cc(Cl)c3C[C@H]2O)C1 [Example 23a, 3-[1-((1R,2R)-4,6-Dichloro-2-hydroxy-indan-1-yl)-5-methanesulfonyl-4,5,6,7-tetrahydro-1H-pyrazolo[4,3-c]pyridin-3-yl]-benzonitrile] |
| 61 | CC(=O)N1CCc2c(c(-c3ccc(C(F)(F)F)cc3)nn2[C@@H]2c3cc(F)cc(F)c3C[C@H]2O)C1 [Example 11ae, 1-[1-((1R,2R)-4,6-Difluoro-2-hydroxy-indan-1-yl)-3-(4-trifluoromethyl-phenyl)-1,4,6,7-tetrahydro-pyrazolo[4,3-c]pyridin-5-yl]-ethanone] |
| 87 | CSc1cc(F)cc2c1C[C@@H](O)[C@@H]2n1nc(-c2cccc(C#N)c2)c2c1CCN(C(C)=O)C2 [Example 21c, 3-[5-Acetyl-1-((1R,2R)-6-fluoro-2-hydroxy-4-methylsulfanyl-indan-1-yl)-4,5,6,7-tetrahydro-1H-pyrazolo[4,3-c]pyridin-3-yl]-benzonitrile] |
| 83 | COCCN1CCc2c(c(-c3cccc(C#N)c3)nn2[C@@H]2c3cc(F)cc(F)c3C[C@H]2O)C1 [Example 18d, 3-[1-((1R,2R)-4,6-Difluoro-2-hydroxy-indan-1-yl)-5-(2-methoxy-ethyl)-4,5,6,7-tetrahydro-1H-pyrazolo[4,3-c]pyridin-3-yl]-benzonitrile] |

Same assay, conditions: human TASK-1 expressed in Xenopus oocytes, currents during 500 ms pulses to 40 mV, room temperature

| IC50 [nM] | SMILES |
| --- | --- |
| 495 | CC(=O)N1CCc2c(c(-c3ccc(F)cc3)nn2[C@@H]2c3cc(F)cc(F)c3C[C@H]2O)C1 [Example 11l, 1-[1-((1R,2R)-4,6-Difluoro-2-hydroxy-indan-1-yl)-3-(4-fluoro-phenyl)-1,4,6,7-tetrahydro-pyrazolo[4,3-c]pyridin-5-yl]-ethanone] |
| 789 | CC(=O)N1CCc2c(c(-c3cccc(OC(F)(F)F)c3)nn2[C@H]2c3cc(F)cc(F)c3C[C@@H]2O)C1 [Example 11r, 1-[1-((1S,2S)-4,6-Difluoro-2-hydroxy-indan-1-yl)-3-(3-trifluoromethoxy-phenyl)-1,4,6,7-tetrahydro-pyrazolo[4,3-c]pyridin-5-yl]-ethanone] |
| 500 | O[C@@H]1Cc2c(F)cc(F)cc2[C@H]1n1nc(-c2ccc(F)cc2)c2c1CCN(CC1CC1)C2 [Example 18a, (1R,2R)-1-[5-cyclopropylmethyl-3-(4-fluoro-phenyl)-4,5,6,7-tetrahydro-pyrazolo[4,3-c]pyridin-1-yl]-4,6-difluoro-indan-2-ol] |
| 3880 | CC(=O)N1CCc2c(c(-c3ccc(F)cc3)nn2[C@@H]2c3c(Cl)cc(Cl)cc3C[C@H]2O)C1 (racemic) [Example 11ac, racemic 1-[1-((1R,2R)-5,7-Dichloro-2-hydroxy-indan-1-yl)-3-(4-fluoro-phenyl)-1,4,6,7-tetrahydro-pyrazolo[4,3-c]pyridin-5-yl]-ethanone] |
| 1260 | CC(=O)N1CCc2c(c(-c3cccc(C#N)c3)nn2[C@@H]2c3cc(F)cc(F)c3C[C@@]2(C)O)C1 (racemic) [Example 11w, Racemic 3-[5-Acetyl-1-((1R,2R)-4,6-difluoro-2-hydroxy-2-methyl-indan-1-yl)-4,5,6,7-tetrahydro-1H-pyrazolo[4,3-c]pyridin-3-yl]-benzonitrile] |
| 479 | CC(=O)N1CCc2c(c(-c3ccc(F)cc3)nn2[C@H]2CCc3ccccc32)C1 [Example 12b, 1-[(S)-3-(4-Fluoro-phenyl)-1-indan-1-yl-1,4,6,7-tetrahydro-pyrazolo[4,3-c]pyridin-5-yl]-ethanone] |
| 2130 | CC(=O)N1CCc2c(c(-c3ccc(F)c(C#N)c3)nn2[C@@H]2c3cc(F)cc(F)c3C[C@H]2O)C1 [Example 11z, 5-[5-Acetyl-1-((1R,2R)-4,6-difluoro-2-hydroxy-indan-1-yl)-4,5,6,7-tetrahydro-1H-pyrazolo[4,3-c]pyridin-3-yl]-2-fluoro-benzonitrile] |
| 1160 | CO[C@@H]1Cc2c(F)cc(F)cc2[C@H]1n1nc(-c2ccc(F)cc2)c2c1CCN(C(C)=O)C2 [Example 16b, 1-[1-((1R,2R)-4,6-Difluoro-2-methoxy-indan-1-yl)-3-(4-fluoro-phenyl)-1,4,6,7-tetrahydro-pyrazolo[4,3-c]pyridin-5-yl]-ethanone] |
| 6890 | COc1ccc(-c2nn([C@@H]3c4cc(F)cc(F)c4C[C@H]3O)c3c2CN(C(C)=O)CC3)cc1 [Example 11ad, 1-[1-((1R,2R)-4,6-Difluoro-2-hydroxy-indan-1-yl)-3-(4-methoxy-phenyl)-1,4,6,7-tetrahydro-pyrazolo[4,3-c]pyridin-5-yl]-ethanone] |
| 712 | CC(=O)N1CCc2c(c(-c3ccc(F)cc3)nn2[C@@H]2CCc3ccccc32)C1 [Example 12a, 1-[(R)-3-(4-Fluoro-phenyl)-1-indan-1-yl-1,4,6,7-tetrahydro-pyrazolo[4,3-c]pyridin-5-yl]-ethanone] |
| 2970 | CC(=O)N1CCc2c(c(-c3ccc(Cl)cc3)nn2[C@@H]2c3cc(F)cc(F)c3C[C@H]2O)C1 [Example 11ab, 1-[3-(4-Chloro-phenyl)-1-((1R,2R)-4,6-difluoro-2-hydroxy-indan-1-yl)-1,4,6,7-tetrahydro-pyrazolo[4,3-c]pyridin-5-yl]-ethanone] |
| 171 | CC(=O)N1CCc2c(c(-c3cccc(OC(F)(F)F)c3)nn2[C@@H]2c3cc(F)cc(F)c3C[C@H]2O)C1 [Example 11a, 1-[1-((1R,2R)-4,6-Difluoro-2-hydroxy-indan-1-yl)-3-(3-trifluoromethoxy-phenyl)-1,4,6,7-tetrahydro-pyrazolo[4,3-c]pyridin-5-yl]-ethanone] |
| 250 | CC(C)C(=O)N1CCc2c(c(-c3cccc(C#N)c3)nn2[C@@H]2c3cc(F)cc(F)c3C[C@H]2O)C1 [Example 14c, 3-[1-((1R,2R)-4,6-Dif1uoro-2-hydroxy-indan-1-yl)-5-isobutyryl-4,5,6,7-tetrahydro-1H-pyrazolo[4,3-c]pyridin-3-yl]-benzonitrile] |
| 204 | COc1ccc(F)c(-c2nn([C@@H]3c4cc(F)cc(F)c4C[C@H]3O)c3c2CN(C(C)=O)CC3)c1 [Example 11c, 1-[1-((1R,2R)-4,6-Difluoro-2-hydroxy-indan-1-yl)-3-(2-fluoro-5-methoxy-phenyl)-1,4,6,7-tetrahydro-pyrazolo[4,3-c]pyridin-5-yl]-ethanone] |
| 685 | CC(=O)N1CCc2c(c(-c3cccc(C#N)c3)nn2[C@@H]2c3cc(Cl)ccc3C[C@H]2O)C1 [Example 11p, 3-[5-Acetyl-1-((1R,2R)-6-chloro-2-hydroxy-indan-1-yl)-4,5,6,7-tetrahydro-1H-pyrazolo[4,3-c]pyridin-3-yl]-benzonitrile] |
| 83.1 | N#Cc1cccc(-c2nn([C@@H]3c4cc(F)cc(F)c4C[C@H]3O)c3c2CN(C(=O)C2CC2)CC3)c1 [Example 14b, 3-[5-Cyclopropanecarbonyl-1-((1R,2R)-4,6-difluoro-2-hydroxy-indan-1-yl)-4,5,6,7-tetrahydro-1H-pyrazolo[4,3-c]pyridin-3-yl]-benzonitrile] |
| 442 | COc1cccc(-c2nn([C@@H]3c4cc(F)cc(F)c4C[C@H]3O)c3c2CN(C(C)=O)CC3)c1 [Example 11k, 1-[1-((1R,2R)-4,6-Difluoro-2-hydroxy-indan-1-yl)-3-(3-methoxy-phenyl)-1,4,6,7-tetrahydro-pyrazolo[4,3-c]pyridin-5-yl]-ethanone] |
| 518 | CC(=O)N1CCc2c(c(-c3cccc(C(F)(F)F)n3)nn2[C@@H]2c3cc(Cl)cc(Cl)c3C[C@H]2O)C1 [Example 11m, 1-[1-((1R,2R)-4,6-Dichloro-2-hydroxy-indan-1-yl)-3-(6-trifluoromethyl-pyridin-2-yl)-1,4,6,7-tetrahydro-pyrazolo[4,3-c]pyridin-5-yl]-ethanone] |
| 500 | CC(=O)N1CCc2c(c(-c3cccc(C#N)c3)nn2[C@@H]2c3cc(F)cc(C4CC4)c3C[C@H]2O)C1 [Example 20a, 3-[5-Acetyl-1-((1R,2R)-4-cyclopropyl-6-fluoro-2-hydroxy-indan-1-yl)-4,5,6,7-tetrahydro-1H-pyrazolo[4,3-c]pyridin-3-yl]-benzonitrile] |
